From ChEMBL document CHEMBL1201862, “PubChem BioAssay data set” (2004) come the findings set out here.

In series [1] the target is Cytochrome P450 2C9 (Homo sapiens, UniProt P11712).
For series [2], the target named is Cytochrome P450 2C19 (Homo sapiens, UniProt P33261). Briefly: Cytochrome panel assay with activity outcomes. Panel member name: p450-cyp2c19 Compounds with AC50 equal or less than 10 uM are considered active. In kind it is functional.
Series [3] deals with Cytochrome P450 3A4 (Homo sapiens, UniProt P08684).
Sequence of Cytochrome P450 3A4 (P08684 whole entry): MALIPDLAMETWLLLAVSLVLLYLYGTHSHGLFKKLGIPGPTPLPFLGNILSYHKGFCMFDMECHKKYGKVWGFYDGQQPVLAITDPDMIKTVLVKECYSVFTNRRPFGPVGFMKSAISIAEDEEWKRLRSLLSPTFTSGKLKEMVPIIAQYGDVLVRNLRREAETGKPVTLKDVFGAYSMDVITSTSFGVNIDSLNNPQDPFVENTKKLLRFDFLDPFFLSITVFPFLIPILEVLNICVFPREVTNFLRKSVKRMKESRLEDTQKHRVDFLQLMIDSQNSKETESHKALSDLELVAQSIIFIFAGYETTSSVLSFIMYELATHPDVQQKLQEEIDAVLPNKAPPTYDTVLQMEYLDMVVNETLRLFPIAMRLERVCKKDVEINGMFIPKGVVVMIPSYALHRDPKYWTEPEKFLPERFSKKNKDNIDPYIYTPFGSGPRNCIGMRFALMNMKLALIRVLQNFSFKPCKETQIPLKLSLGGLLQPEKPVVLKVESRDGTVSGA
In series [4] the target is T1, Cytochrome P450 1A2 (Homo sapiens, UniProt P05177).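 Also: PubChem cytochrome P450 panel assay, CYP1A2 panel member.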
T1 sequence (P05177 whole entry): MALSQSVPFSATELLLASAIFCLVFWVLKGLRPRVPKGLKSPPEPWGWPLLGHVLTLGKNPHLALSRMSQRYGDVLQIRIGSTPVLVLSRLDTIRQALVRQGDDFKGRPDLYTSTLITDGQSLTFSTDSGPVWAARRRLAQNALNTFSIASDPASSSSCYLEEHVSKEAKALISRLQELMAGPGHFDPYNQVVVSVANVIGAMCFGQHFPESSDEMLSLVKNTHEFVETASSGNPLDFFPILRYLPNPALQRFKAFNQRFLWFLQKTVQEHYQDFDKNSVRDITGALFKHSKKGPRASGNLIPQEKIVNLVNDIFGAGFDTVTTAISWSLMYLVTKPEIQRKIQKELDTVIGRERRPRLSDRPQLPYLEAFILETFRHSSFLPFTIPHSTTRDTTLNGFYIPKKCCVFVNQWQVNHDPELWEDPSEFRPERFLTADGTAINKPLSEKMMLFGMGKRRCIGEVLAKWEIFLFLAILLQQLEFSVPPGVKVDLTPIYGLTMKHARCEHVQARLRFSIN

In series [5] the target is Cytochrome P450 2D6 (Homo sapiens, UniProt P10635).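 Also: CYP2D6 member of a cytochrome P450 panel assay.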
Sequence of Cytochrome P450 2D6 (P10635 whole entry): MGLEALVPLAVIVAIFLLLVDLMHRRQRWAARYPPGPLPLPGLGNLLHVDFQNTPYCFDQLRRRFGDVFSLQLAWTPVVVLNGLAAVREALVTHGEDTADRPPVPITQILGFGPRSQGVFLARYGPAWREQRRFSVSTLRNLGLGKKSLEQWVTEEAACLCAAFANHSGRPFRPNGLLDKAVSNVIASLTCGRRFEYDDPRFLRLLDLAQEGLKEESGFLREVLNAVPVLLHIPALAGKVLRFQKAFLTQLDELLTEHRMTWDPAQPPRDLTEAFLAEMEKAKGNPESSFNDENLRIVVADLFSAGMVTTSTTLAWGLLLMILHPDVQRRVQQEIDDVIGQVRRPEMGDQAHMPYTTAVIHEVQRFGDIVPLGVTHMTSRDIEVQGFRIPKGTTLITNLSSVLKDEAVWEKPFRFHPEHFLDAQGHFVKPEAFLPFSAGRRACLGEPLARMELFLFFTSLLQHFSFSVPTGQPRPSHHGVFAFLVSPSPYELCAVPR
The target in series [6] is T2, Heat shock factor protein 1 (Mus musculus, UniProt P38532).
T2 sequence (P38532 whole entry): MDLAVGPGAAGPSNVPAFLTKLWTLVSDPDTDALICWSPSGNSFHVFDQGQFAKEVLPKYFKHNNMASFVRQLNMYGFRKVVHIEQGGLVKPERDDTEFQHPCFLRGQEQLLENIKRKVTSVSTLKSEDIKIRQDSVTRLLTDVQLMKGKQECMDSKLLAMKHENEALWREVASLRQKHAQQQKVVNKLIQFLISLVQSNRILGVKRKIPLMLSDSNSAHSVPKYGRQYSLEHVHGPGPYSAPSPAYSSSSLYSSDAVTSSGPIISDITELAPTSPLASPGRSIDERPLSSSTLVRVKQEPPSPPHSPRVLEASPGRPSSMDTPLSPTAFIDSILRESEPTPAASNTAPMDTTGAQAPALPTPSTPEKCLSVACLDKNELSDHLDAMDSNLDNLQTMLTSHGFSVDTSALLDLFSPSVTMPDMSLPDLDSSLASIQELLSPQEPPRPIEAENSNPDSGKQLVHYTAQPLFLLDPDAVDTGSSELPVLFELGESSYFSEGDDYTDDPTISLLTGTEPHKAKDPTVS
Briefly: enhancement of HSF1-driven luciferase signal – cell-based, NIH3T3, luminescence, dose retest, confirmation (AID 435004).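 Also: stress induced by proteasome inhibitor MG132 added 30 min after compound; luciferase reporter driven by HSF1 response element in NIH3T3 cells; actives raise luminescence as potentiators of the MG132 stress response.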 The format is functional.

Active and inactive are the calls of the source.

Sequence of Cytochrome P450 2C9 (P11712 whole entry): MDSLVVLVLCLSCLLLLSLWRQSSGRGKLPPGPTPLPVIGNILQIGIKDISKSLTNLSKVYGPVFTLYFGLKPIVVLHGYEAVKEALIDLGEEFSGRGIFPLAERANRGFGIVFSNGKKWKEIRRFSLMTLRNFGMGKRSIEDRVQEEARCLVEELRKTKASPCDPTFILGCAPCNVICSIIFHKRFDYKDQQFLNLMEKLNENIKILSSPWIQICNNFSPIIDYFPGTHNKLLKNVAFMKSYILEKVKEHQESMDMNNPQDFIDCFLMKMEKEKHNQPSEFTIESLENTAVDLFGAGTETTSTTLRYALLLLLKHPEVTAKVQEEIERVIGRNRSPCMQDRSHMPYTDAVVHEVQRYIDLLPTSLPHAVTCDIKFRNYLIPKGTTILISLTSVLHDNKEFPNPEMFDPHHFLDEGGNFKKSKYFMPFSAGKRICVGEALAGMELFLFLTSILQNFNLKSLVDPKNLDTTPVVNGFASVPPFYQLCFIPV
Sequence of Cytochrome P450 2C19 (P33261 whole entry): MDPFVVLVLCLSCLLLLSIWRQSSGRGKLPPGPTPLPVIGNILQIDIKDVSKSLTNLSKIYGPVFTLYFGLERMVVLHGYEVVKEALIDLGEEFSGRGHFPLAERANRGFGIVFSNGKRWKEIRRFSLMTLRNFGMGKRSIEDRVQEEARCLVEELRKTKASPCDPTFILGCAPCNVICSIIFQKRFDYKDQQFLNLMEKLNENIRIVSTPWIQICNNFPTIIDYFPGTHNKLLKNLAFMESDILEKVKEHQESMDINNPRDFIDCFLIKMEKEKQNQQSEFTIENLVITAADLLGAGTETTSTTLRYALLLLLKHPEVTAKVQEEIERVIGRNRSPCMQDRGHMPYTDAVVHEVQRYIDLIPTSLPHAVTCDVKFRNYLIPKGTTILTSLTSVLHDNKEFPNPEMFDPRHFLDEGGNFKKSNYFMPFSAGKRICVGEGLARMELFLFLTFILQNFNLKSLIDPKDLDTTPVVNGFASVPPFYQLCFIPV

For `CNC(=O)c1cc2c(cn1)[nH]c1ccccc12`, the AC50 (usually the concentration at which the activity in the assay is half-maximal) in series [1] is 31.6 µM (inconclusive); in series [2] it was “inconclusive”; in series [3], 39.8 µM (inconclusive).

As for `O=c1[nH]ncc2c3ccccc3n(Cc3ccccc3)c12`, the AC50 in series [1] was 2 µM (inconclusive); in series [2] (read-out: AC50) it was 2.51 µM (inconclusive).

Consider `CCOC(=O)c1ccccc1NC(=O)CSc1cccc[n+]1[O-]`, for which the AC50 is 25.1 µM (inconclusive) in series [4] and 22.4 µM (inconclusive) in series [2] (read-out: AC50).

For `COc1ccccc1-c1cncnc1-n1ccnc1`, the AC50 in series [5] and in series [2] (read-out: AC50) was 25.1 µM (inconclusive) in each case.

For the compound `CSc1sc(C(=O)OC(C)C)c2c1C(=O)CC(C)(C)C2`, the EC50 (as a rule, the concentration that produces a half-maximal response) in series [6] is > 260 µM (inactive).

For `COC(=O)C1(Cc2ccccc2)C=C2C(=C(C(C)C)C(=O)C2C)CN1` (stereo not given), the values for the AC50 in series [1], in series [4] and in series [2] (read-out: AC50) were 31.6 µM (inconclusive), 15.8 µM (inconclusive) and 39.8 µM (inconclusive), respectively.

Regarding `CC1(CCC#N)N=C(SCCC#N)N(c2ccccc2)C1=O` (stereo not given), the AC50 in series [2] (read-out: AC50) is 25.1 µM (inconclusive).

In the case of `CC(C)=NOCc1cccc(-c2cc(-c3ccccc3)no2)c1`, in series [3], the AC50 is 6.31 µM (inconclusive).

In the case of `C(=C/c1ccccc1)/C=N/c1ccc2c(c1)Cc1ccccc1-2`, in series [3], the AC50 is 3.98 µM (inconclusive).

Turning to `COc1ccc(C2SCC(=O)Nc3c2c(C)nn3-c2ccccc2)cc1OC` (stereo not given), the values for the AC50 in series [4] and in series [3] were 22.4 µM (inconclusive) and 12.6 µM (inconclusive), respectively.

As to `CC(C)CN1CCC2(CC1)CCN(C(=O)c1cccn1C)CC2`, the AC50 in series [5] was 12.6 µM (inconclusive).

Turning to `CS(=O)(=O)Nc1cccc(-c2nc(NCc3cccnc3)c3ccccc3n2)c1`, in series [1], the AC50 is 1 µM (inconclusive).

Take `O=C1c2ccccc2C(=O)c2c1ccc(C(=O)O)c2-c1ccc2ccccc2c1`: the AC50 is 7.94 µM (inconclusive) in series [5] and 1.26 µM (inconclusive) in series [4].

With `N#Cc1ccc(Cl)cc1NC(=O)CNCc1cccs1`, in series [6], the EC50 was > 260 µM (inactive).

For `CCCc1ccc(NC(=O)C2CCCN(c3cnccn3)C2)cc1` (stereo not given), in series [6], the EC50 was > 260 µM (inactive).

`Cc1ccc(C(=O)NCCCN2CCOCC2)cc1N1CCCC1=O`: the AC50 in series [1] is 1.26 µM (inconclusive).

Take `CCCCCCCCCCCCC/C=C\[C@@H](O)[C@@H](N)CO`: the figures for the AC50 in series [1] and in series [2] (read-out: AC50) were 39.8 µM (inconclusive) and 25.1 µM (inconclusive), respectively.

Regarding `CC(=O)NN1C(=O)/C(=C\c2ccc(C)cc2)SC1=S`, the AC50 in series [1] is 28.2 µM (inconclusive).

On to `CN(C)c1ncc2nc(-c3ccc(Cl)cc3)c(=O)n(-c3ccccc3)c2n1`, for which the results for the AC50 in series [5] and in series [4] were 0.631 µM (inconclusive) and 5.01 µM (inconclusive), respectively.

Consider `COc1ccccc1CN1CCCC2(CCN(C(=O)c3ccncc3)CC2)C1`, for which the AC50 in series [1] and in series [4] was 20 µM (inconclusive) in each case.

Turning to `COC(=O)[C@@]1(Cc2ccccc2)[C@H]2c3cc(C(=O)N4CCCC4)n(Cc4cc(F)cc5c4OCOC5)c3C[C@H]2CN1C(=O)c1ccccc1`, the concentration at half-maximal activity (AC50) in series [5] is 10 µM (inconclusive).

On to `CCCCNc1nc(SC)nc2[nH]cnc12`, for which the AC50 in series [5] is 2.51 µM (inconclusive); in series [2] (read-out: AC50), 3.16 µM (inconclusive); in series [3], 3.16 µM (inconclusive).

With `CCOc1ccc(C)cc1S(=O)(=O)NC1CCCCC1`, the EC50 in series [6] is > 260 µM (inactive).

With `COCCn1c(=O)c(-c2ccc(Cl)cc2)nc2cncnc21`, the AC50 in series [1] was 31.6 µM (inconclusive); in series [2] (read-out: AC50), 39.8 µM (inconclusive); in series [3] it was 12.6 µM (inconclusive).

As for `Cc1ccc(C)c(NC(=O)CS(=O)(=O)c2cn(C)c3ccccc23)c1`, the EC50 in series [6] is > 260 µM (inactive).

On to `CCCCN1C(=O)C(NC(=O)CC(C)C)(C(F)(F)F)C2=C1CC(C)(C)CC2=O` (stereo not given), for which the AC50 in series [1] was 5.62 µM (inconclusive); in series [2] (read-out: AC50), 25.1 µM (inconclusive).

On to `O=c1ccc2ccc(Oc3ccc([N+](=O)[O-])cc3[N+](=O)[O-])cc2o1`, for which the EC50 in series [6] was 13.5 µM (active).

With `Fc1ccc(-c2csc(N3CCC(c4ccccc4)C3)n2)cc1` (stereo not given), the AC50 in series [3] is 28.2 µM (inconclusive).

As for `Cc1ccc(NC(=S)N=Nc2c(O)n(C)c3ccc(S(=O)(=O)N4CCOCC4)cc23)cc1`, the EC50 in series [6] is 6.25 µM (active).

With `COc1cccc(CN2CC(C(=O)NCc3ccc(C)o3)CCC2=O)c1` (stereo not given), in series [6], the EC50 is > 260 µM (inactive).

On to `Cc1ccc(CNC(=O)Cn2c(=O)oc3ccccc32)o1`, for which, in series [5], the half-maximal activity concentration (AC50) was 20 µM (inconclusive).

Consider `CC12COC3(C(=O)Nc4nccs4)CC1CCC32C` (stereo not given), for which the figures for the AC50 in series [1] and in series [4] were 0.01 µM (inconclusive) and 12.6 µM (inconclusive), respectively.

For the compound `COc1ccc(C(=O)NCCCN2CCOCC2)cc1OC`, the results for the AC50 in series [1] and in series [5] were 14.1 µM (inconclusive) and 2 µM (inconclusive), respectively.

Turning to `CCOc1cc(NC(=O)c2ccccc2C)c(OCC)cc1N=C(S)NCC1CCCO1` (stereo not given), the AC50 in series [2] (read-out: AC50) is 11.2 µM (inconclusive).

For the compound `CCOc1ccc(-c2nnc(-c3ccncc3)o2)cc1`, in series [3], the AC50 was 1.58 µM (inconclusive).

With `Cc1cccc(CN2CCC(C(=O)Nc3cccc(-c4cscn4)c3)CC2)n1`, the EC50 in series [6] was > 260 µM (inactive).

With `Cc1cc(C)c(C(N)=O)c(SCC(=O)c2ccc(Cl)cc2)n1`, the AC50 in series [4] is 15.8 µM (inconclusive); in series [3] it was 31.6 µM (inconclusive).

As for `CC(=O)NCCn1ccc2ccccc21`, the EC50 in series [6] was > 260 µM (inactive).

Consider `CCNc1ncc2nc(-c3cccc(C#N)c3)c(=O)n(CCC#N)c2n1`, for which the results for the AC50 in series [4] and in series [3] were 0.631 µM (inconclusive) and 7.94 µM (inconclusive), respectively.

Take `CCNc1ncc2nc(-c3cc(F)cc(F)c3)c(=O)n(-c3ccc(OC)cc3)c2n1`: the AC50 in series [5] was 0.158 µM (inconclusive).

As to `CC(C)(C)CC(C)(C)c1ccc(O)c(C[N+](C)(C)[O-])c1`, the AC50 in series [5] is 7.94 µM (inconclusive); in series [3], 5.01 µM (inconclusive).

As for `CCOC(=O)c1c(C)n(C)c2ccc(OC)c(NC(=O)CN3CCCCC3)c12`, the values for the AC50 in series [5], in series [2] (read-out: AC50) and in series [3] were 20 µM (inconclusive), 11.2 µM (inconclusive) and 14.1 µM (inconclusive), respectively.

On to `CCCCN(C(S)=Nc1ccccc1)C1CCS(=O)(=O)C1` (stereo not given), for which the AC50 in series [3] is 22.4 µM (inconclusive).

As for `Cc1onc(-c2ccccc2)c1C(=O)NC(CC(=O)O)c1ccc(OC(C)C)cc1` (stereo not given), the AC50 is 15.8 µM (inconclusive) in series [1], 7.08 µM (inconclusive) in series [2] (read-out: AC50) and 28.2 µM (inconclusive) in series [3].

Regarding `Cc1ccc(NC(=S)N2CCN(C3CCCCC3)CC2)cc1`, the AC50 in series [3] was 10 µM (inconclusive).

As for `O=C(CN(Cc1ccccc1)S(=O)(=O)c1ccc2c(c1)OCCO2)N/N=C/c1ccc(F)cc1`, the AC50 is 15.8 µM (inconclusive) in series [5] and 11.2 µM (inconclusive) in series [4].

Regarding `COc1ccc(OCCn2c(C)c(/C=N/n3cnnc3)c3ccccc32)cc1`, the AC50 in series [5] was 3.98 µM (inconclusive).

As to `C/C(=N/NC(=O)c1cccs1)c1ccc(NC(=O)COc2ccc(Cl)cc2Cl)cc1`, the AC50 in series [1] is 4.47 µM (inconclusive); in series [4] it was 12.6 µM (inconclusive).

For `C(=N\n1cnnc1)/c1cccn1-c1ccccc1`, the AC50 in series [2] (read-out: AC50) was 0.0251 µM (inconclusive); in series [3], 39.8 µM (inconclusive).

As to `COc1ccccc1CNc1ncnc2ccc(-c3ccccc3OC)cc12`, the AC50 in series [5] was 12.6 µM (inconclusive).

In the case of `Nc1ccccc1SCc1csc(-c2ccc(Cl)cc2)n1`, the values for the AC50 in series [1] and in series [5] were 5.01 µM (inconclusive) and 3.16 µM (inconclusive), respectively.

For the compound `COc1ccc(-c2coc3cc(OC)cc(O)c3c2=O)cc1` [4',7-DIMETHOXY-5-HYDROXYGENISTEIN], the AC50 was 2.82 µM (inconclusive) in series [1] and 25.1 µM (inconclusive) in series [2] (read-out: AC50).

As for `CN(C(=O)Cc1ccc(Cl)c(Cl)c1)[C@H](CN1CCCC1)c1ccccc1` [ICI-199,441], the AC50 was 0.0126 µM (active) in series [5] and 31.6 µM (inconclusive) in series [4].
